From patent US20090099167A1, “Organic compounds” (Novartis Institutes for Biomedical Research, priority 2004, published 2009)

Experiments:
[1] = biological target: Cdk1/cycB (UniProt P06493); assay: Cdk1/cycB kinase assay, histone H1 substrate; type: biochemical, starfish; conditions: Table 5; read-out: CDK1/B, IC50 class
How it was run: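 Active Cdk1/cycB was purified from starfish oocytes arrested in M phase with 1-methyladenine, using p9CKShs-sepharose. Reactions ran 20 min at ambient temperature and were stopped with EDTA. Phosphorylated product was captured on Immobilon P membranes, washed in H3PO4 and EtOH, and counted by scintillation.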

[2] = biological target: T1, Tek (Homo sapiens, UniProt Q02763); assay: Tek kinase inhibition, GST-fused kinase domain; type: biochemical; conditions: Table 5; read-out: Tek, IC50 class
T1 construct: N-terminally GST-fused (pAcG1, Pharmingen) KDR, Flt-1, Flk-1, Tek and PDGFR-β kinase domains are obtained from ProQinase, Freiburg, Germany; host or cells: Sf9 or High Five (baculovirus)
Description: The inhibition of IGF-1R and Ins-R can be determined as follows: The baculovirus donor vector pfbgx3IGFIRcd is used to generate a recombinant baculovirus that expresses the amino acid region 950-1337 of the mature peptide cytoplasmic domain of the human IGF-IR. To generate the cDNA fragment encoding the amino acid region 919-1343 of the intra-cytoplasmic kinase domain of the human insulin receptor, pC5hInsR is used. The fragments of the human IGF-IR and Ins-R are cloned, expressed and small-scale purified as a factor Xa-cleavable glutathione-S-transferase (GST)-fusion protein using the Bac-to-Bac™ system (GIBCO BRL) of recombinant baculovirus generation. Virus containing media is collected from the transfected cell culture and used for infection to increase its titer. Virus containing media obtained after two rounds of infection is used for large-scale protein expression. Cell extracts are prepared and loaded onto a glutathione-Sepharose (Pharmacia) column. After washing, the GST-tagged proteins are then eluted with a glutathione-containing buffer. Purified protein is stored at −70° C. in elution buffer. Tyrosine protein kinase assays with purified GST-IGF-1R and GST-ins-R are carried in a final volume of 30 μl containing 20 mM Tris-HCl, pH 7.6, 10 mM MgCl2, 0.01 mM Na3VO4, 1% DMSO, 1 mM DTT, 3 μg/ml poly(Glu,Tyr) 4:1 and 10 μM ATP (γ-[^33P]-ATP 0.1 μCi). The assay is performed in 96-well plates at ambient temperature for 20 min and terminated by addition of 25 μl 0.05 M EDTA pH 7.0. An aliquot of 40 μl is spotted with a multichannel dispenser on Whatman P81 membranes mounted in a Millipore Microtiter filter manifold connected to a low vacuum source. After elimination of liquid, the membrane is transferred to a sequence of 4 washing baths containing 0.5% H3PO4 and one with EtOH (shaking incubation for 10 min each), dried, mounted onto a Hewlett Packard TopCount manifold added 10 μl Microscint® and counted. Compounds of formula (I) show up to 90% inhibition of Ins-R at 10,000 nM, preferably between 60-90% inhibition. The inhibition of Tek can be determined as follows: The procedure of the expression, purification and assay these kinases has been described. Fabbro et al., Pharmacol. Ther. 82(2-3) 293-301 (1999). In brief, the glutathione S-transferase (GST) gene from the pAcG1 vector (Pharmingen) is excised with EcoRV and EcoRI and inserted into the cloning site of the Fast-Bac baculoviral vector (GIBCO) creating a 5530 bp vector with N-terminal cloning sites derived from the pAcG1 fusion vector (FBG0). The C-terminal cloning site may be any cloning site (from the Fast-Bac vector) downstream of the N-terminal cloning site used. N-terminally GST-fused (pAcG1, Pharmingen) KDR, Flt-1, Flk-1, Tek and PDGFR-β kinase domains are obtained from ProQinase, Freiburg, Germany. Tek is recloned into the FBG1 vector by EcoRI excision and ligation into EcoRI digested FBG1 (FBG1-Tek). The coding sequences for the whole cytoplasmic domain of c-Kit (aa 544-976) and c-Fms (aa 538-972) are amplified by PCR from human uterus and from human bone marrow cDNA libraries (Clontech), respectively. The amplified DNA fragments are fused to GST by cloning them into FBG1 as BamHI-EcoRI insertions, to yield FBG1-c-Kit and FBG1-c-Fms. Tek is recloned into the FBG0 transfer vector by EcoRI excision and ligation into EcoRI digested FBG0 (FBG-Tie2/Tek). FGFR-1 and c-met kinase domains are obtained by PCR from human A431 cells. N-terminal primers contain an overhanging EcoRI site, while C-terminal primers contain a XhoI site to aid cloning into the transfer vectors. After digestion of both the PCR fragments and FBG0 the cleavage products are gel-purified and ligated together to form the kinase constructs (FBG-Met, FBG-FGFR-1).
Viruses for each of the kinases are made according to the protocol supplied by GIBCO. […]

[3] = biological target: HER-1 (Homo sapiens, UniProt P00533); assay: HER-1 kinase inhibition; type: biochemical; conditions: Table 5; read-out: HER-1, IC50 class
HER-1, sequence (P00533 25-1210, species assumed): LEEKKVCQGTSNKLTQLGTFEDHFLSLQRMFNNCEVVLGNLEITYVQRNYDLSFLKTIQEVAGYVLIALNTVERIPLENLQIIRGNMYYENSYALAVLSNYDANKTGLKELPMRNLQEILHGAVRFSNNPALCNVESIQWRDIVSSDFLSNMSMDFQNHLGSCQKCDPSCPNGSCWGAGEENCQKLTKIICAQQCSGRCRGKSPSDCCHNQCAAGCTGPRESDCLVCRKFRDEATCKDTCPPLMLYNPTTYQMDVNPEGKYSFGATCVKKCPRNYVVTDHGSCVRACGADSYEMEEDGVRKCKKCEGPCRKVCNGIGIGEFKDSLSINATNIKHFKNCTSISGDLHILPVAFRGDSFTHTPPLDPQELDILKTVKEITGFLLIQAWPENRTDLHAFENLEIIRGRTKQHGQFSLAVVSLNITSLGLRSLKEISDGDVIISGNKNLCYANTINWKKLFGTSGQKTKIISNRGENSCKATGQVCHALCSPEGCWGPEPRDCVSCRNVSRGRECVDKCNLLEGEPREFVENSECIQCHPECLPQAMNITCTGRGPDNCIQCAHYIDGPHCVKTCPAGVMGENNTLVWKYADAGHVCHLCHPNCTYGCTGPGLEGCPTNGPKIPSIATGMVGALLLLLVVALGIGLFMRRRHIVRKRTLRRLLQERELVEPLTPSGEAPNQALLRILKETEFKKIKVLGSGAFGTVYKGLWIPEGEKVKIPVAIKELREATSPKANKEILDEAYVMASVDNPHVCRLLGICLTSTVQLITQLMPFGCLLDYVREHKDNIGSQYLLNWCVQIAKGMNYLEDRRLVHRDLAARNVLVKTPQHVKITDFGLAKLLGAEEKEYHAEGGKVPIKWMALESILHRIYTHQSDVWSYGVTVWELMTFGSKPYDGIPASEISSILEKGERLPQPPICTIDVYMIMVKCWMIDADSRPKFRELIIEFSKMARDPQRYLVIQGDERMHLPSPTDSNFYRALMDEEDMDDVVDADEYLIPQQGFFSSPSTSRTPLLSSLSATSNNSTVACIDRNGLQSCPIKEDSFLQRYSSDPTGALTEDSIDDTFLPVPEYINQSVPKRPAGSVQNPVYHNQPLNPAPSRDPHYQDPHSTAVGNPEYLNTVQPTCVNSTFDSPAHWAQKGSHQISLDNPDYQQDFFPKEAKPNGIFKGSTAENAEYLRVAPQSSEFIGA

T1 sequence (Q02763 824-1096 limits assumed, species assumed): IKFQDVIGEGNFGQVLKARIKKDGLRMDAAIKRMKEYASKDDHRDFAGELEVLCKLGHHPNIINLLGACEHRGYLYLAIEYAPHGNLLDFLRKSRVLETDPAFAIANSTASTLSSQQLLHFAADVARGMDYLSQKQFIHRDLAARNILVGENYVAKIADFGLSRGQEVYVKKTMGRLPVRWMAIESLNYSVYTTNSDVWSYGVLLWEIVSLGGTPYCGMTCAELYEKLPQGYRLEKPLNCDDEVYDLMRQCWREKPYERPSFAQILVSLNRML

Structure (SMILES) | IC50 [1] | IC50 [2] | IC50 [3]
Cc1nc2c(-c3cccc(N4CCN(CCO)CC4)c3)cnn2c(N)c1-c1cccc(Cl)c1 [Example 90, 2-(4-{3-[7-Amino-6-(3-chloro-phenyl)-5-methyl-pyrazolo[1,5-a]pyrimidin-3-yl]-phenyl}-piperazin-1-yl)-ethanol] | > 10 µM | 1 to 10 µM | > 10 µM
CN1CCN(c2cccc(-c3cnn4c(N)c(Cc5ccccc5)cnc34)c2)CC1 [Example 91, 6-Benzyl-3-[3-(4-methyl-piperazin-1-yl)-phenyl]-pyrazolo[1,5-a]pyrimidin-7-ylamine] | > 10 µM | > 10 µM | > 10 µM
COc1ccc(-c2cnn3c(N)c(-c4cccc(Cl)c4)c(CF)nc23)cc1OC [Example 92, 6-(3-Chloro-phenyl)-3-(3,4-dimethoxy-phenyl)-5-fluoromethyl-pyrazolo[1,5-a]pyrimidin-7-ylamine] | > 10 µM | > 10 µM | > 10 µM
COc1ccc(-c2cnn3c(N)c(-c4cccc(Cl)c4)c(C)nc23)cc1OC [Example 93, 6-(3-Chloro-phenyl)-3-(3,4-dimethoxy-phenyl)-5-methyl-pyrazolo[1,5-a]pyrimidin-7-ylamine] | > 10 µM | > 10 µM | > 10 µM
COc1ccc(-c2cnn3c(N)c(-c4ccc(F)c(Cl)c4)c(C)nc23)cc1 [Example 95, 6-(3-Chloro-4-fluoro-phenyl)-3-(4-methoxy-phenyl)-5-methyl-pyrazolo[1,5-a]pyrimidin-7-ylamine] | > 10 µM | > 10 µM | > 10 µM
COc1ccc(-c2cnn3c(N)c(-c4ccc(F)cc4)c(C)nc23)cc1 [Example 96, 6-(4-Fluoro-phenyl)-3-(4-methoxy-phenyl)-5-methyl-pyrazolo[1,5-a]pyrimidin-7-ylamine] | > 10 µM | > 10 µM | 1 to 10 µM
Cc1nc2c(-c3cccc(N4CCC(N5CCCC5)CC4)c3)cnn2c(N)c1-c1cccc(Cl)c1 [Example 102, 6-(3-Chloro-phenyl)-5-methyl-3-[3-(4-pyrrolidin-1-yl-piperidin-1-yl)-phenyl]-pyrazolo[1,5-a]pyrimidin-7-ylamine] | > 10 µM | 1 to 10 µM | > 10 µM
Cc1nc2c(-c3cccc(N4CC[N+](C)([O-])CC4)c3)cnn2c(N)c1-c1ccc(F)cc1 [Example 106, 6-(4-Fluoro-phenyl)-5-methyl-3-[3-(4-methyl-4-oxy-piperazin-1-yl)-phenyl]-pyrazolo[1,5-a]pyrimidin-7-ylamine] | > 10 µM | > 10 µM | > 10 µM
Cc1nc2c(-c3cccc([N+]4([O-])CC[N+](C)([O-])CC4)c3)cnn2c(N)c1-c1ccc(F)cc1 (stereo not drawn) [Example 107, 6-(4-Fluoro-phenyl)-5-methyl-3-[3-(4-methyl-1,4-dioxy-piperazin-1-yl)-phenyl]-pyrazolo[1,5-a]pyrimidin-7-ylamine] | > 10 µM | > 10 µM | > 10 µM

Other lines, results leading:

IC50 [1] | IC50 [2] | IC50 [3] | Structure (SMILES)
> 10 µM | 1 to 10 µM | > 10 µM | Cc1nc2c(-c3cccc(N4C[C@@H](C)O[C@@H](C)C4)c3)cnn2c(N)c1-c1cccc(Cl)c1 [Example 89, 6-(3-Chloro-phenyl)-3-[3-((2R,6S)-2,6-dimethyl-morpholin-4-yl)-phenyl]-5-methyl-pyrazolo[1,5-a]pyrimidin-7-ylamine]
> 10 µM | > 10 µM | > 10 µM | COc1ccc(-c2cnn3c(N)c(-c4ccc(F)c(Cl)c4)c(C)nc23)cc1OC [Example 94, 6-(3-Chloro-4-fluoro-phenyl)-3-(3,4-dimethoxy-phenyl)-5-methyl-pyrazolo[1,5-a]pyrimidin-7-ylamine]
> 10 µM | > 10 µM | > 10 µM | Cc1nc2c(-c3cccc(N4CCN(CCO)CC4)c3)cnn2c(N)c1-c1ccc(F)cc1 [Example 97, 2-(4-{3-[7-Amino-6-(4-fluoro-phenyl)-5-methyl-pyrazolo[1,5-a]pyrimidin-3-yl]-phenyl}-piperazin-1-yl)-ethanol]
> 10 µM | 1 to 10 µM | > 10 µM | Cc1nc2c(-c3cccc(N4CCN(C)CC4)c3)cnn2c(N)c1-c1ccc(F)c(F)c1 [Example 98, 6-(3,4-Difluoro-phenyl)-5-methyl-3-[3-(4-methyl-piperazin-1-yl)-phenyl]-pyrazolo[1,5-a]pyrimidin-7-ylamine]
> 10 µM | > 10 µM | > 10 µM | COc1ccc(-c2cnn3c(N)c(-c4ccc(F)c(F)c4)c(C)nc23)cc1OC [Example 99, 6-(3,4-Difluoro-phenyl)-3-(3,4-dimethoxy-phenyl)-5-methyl-pyrazolo[1,5-a]pyrimidin-7-ylamine]
> 10 µM | > 10 µM | > 10 µM | Cc1nc2c(-c3cccc(N4CCN(CCO)CC4)c3)cnn2c(N)c1-c1ccc(F)c(Cl)c1 [Example 100, 2-(4-{3-[7-Amino-6-(3-chloro-4-fluoro-phenyl)-5-methyl-pyrazolo[1,5-a]pyrimidin-3-yl]-phenyl}-piperazin-1-yl)-ethanol]
> 10 µM | > 10 µM | > 10 µM | Cc1nc2c(-c3cccc(N4CCN(CCO)CC4)c3)cnn2c(N)c1-c1ccc(F)c(F)c1 [Example 101, 2-(4-{3-[7-Amino-6-(3,4-difluoro-phenyl)-5-methyl-pyrazolo[1,5-a]pyrimidin-3-yl]-phenyl}-piperazin-1-yl)-ethanol]
> 10 µM | > 10 µM | > 10 µM | Cc1nc2c(-c3cccc(N4CCC(N5CCCC5)CC4)c3)cnn2c(N)c1-c1ccc(F)cc1 [Example 103, 6-(4-Fluoro-phenyl)-5-methyl-3-[3-(4-pyrrolidin-1-yl-piperidin-1-yl)-phenyl]-pyrazolo[1,5-a]pyrimidin-7-ylamine]
